Results published in patent US10414778B2, “Methods for treatment of resistant cancer” (New Mexico Tech University Research Park Corporation, priority 2016, dated 2019).

Tests used:
A549 cells = experiment: MTT growth inhibition, A549 NSCLC; format: cell-based, human
Protocol: Human cancer cell lines were obtained from the American Type Culture Collection (ATCC, Manassas, Va., USA), the European Collection of Cell Culture (ECACC, Salisbury, UK), and the Deutsche Sammlung von Mikroorganismen und Zellkulturen (DSMZ, Braunschweig, Germany). Human cervical adenocarcinoma HeLa cells were cultured in DMEM supplemented with 10% fetal bovine serum (FBS). Human mammary carcinoma MCF-7 cells were cultured in RPMI supplemented with 10% FBS. The U87 cells (ATCC HTB-14) were cultured in DMEM culture medium, while the A549 cells (DSMZ ACC107) were cultured in RPMI culture medium supplemented with 10% heat-inactivated FBS. The GBM Hs683 (ATCC HTB-138) and the T98G (ATCC CRL-1690) cell lines were cultivated in DMEM supplemented with 10% FBS. The GBM U251 cells (ECACC code 09063001) were cultured in 10% MEM. The human uterine sarcoma MES-SA and MES-SA/Dx5 cells were cultured in RPMI-1640 medium supplemented with 10% FBS with MES SA/Dx5 maintained in the presence of 500 nM Doxorubicin (Sigma™). The U373 glioblastoma cells (ECACC 08061901) were cultured in RPMI culture medium supplemented with 10% heat-inactivated FBS.
All compounds were dissolved in DMSO at a concentration of either 100 mM or 50 mM prior to cell treatment. The cells were trypsinized and seeded at various cell concentrations depending on the cell type. The cells were grown for 24 h to 72 h, treated with compounds at concentrations ranging from 0.001 to 100 μM, and incubated for 48, 72, or 96 h in 100 or 200 μL media depending on the cell line used. Cells treated with 0.1% DMSO were used as a negative control, and cells treated with 1 μM phenyl arsine oxide (PAO) were used as a positive control.
Drug-resistant cell lines (i.e., glioma: Hs683, U373, U251, U87, T98G; lung cancer: A549, H2073; uterine carcinoma: MES-SA/Dx5) were complemented with drug-sensitive cell lines, H1993 lung cancer and MES-SA uterine cancer, which were used as controls. […] The GI50 values were calculated after 48-96 hours of treatment with the indicated compounds in replicate using the MTT growth assay.
Compounds 5l and 5g were further tested using the A549 lung cancer cell line to determine a dose-response effect on apoptosis-resistant cells. (FIGS. 4-7). […] The MTT assay was performed in four replicates after 48 hours of treatment with the indicated compounds relative to a DMSO control.

GBM 031810 cells = experiment: MTT growth inhibition, primary GBM-derived neurosphere culture GBM 031810; format: cell-based; conditions: Homo sapiens, Table 3, 48-96 h treatment, read-out: GI50 in vitro values, glioma GBM 031810
Protocol: (§1) Cell culture media were supplemented with 4 mM glutamine (Lonza code BE17-605E), 100 μg/mL gentamicin (Lonza code 17-5182), and penicillin-streptomycin (200 units/ml and 200 μg/ml) (Lonza code 17-602E). Primary GBM-derived neurosphere cultures from a patient undergoing surgical debulking were established using previously described methods. Briefly, resected tumor tissue was minced with a sterile scalpel and dissociated in 3 mL of neurobasal (NB) media containing 100 U/mL of collagenase (Life Technologies™) for 30 minutes at 37° C. Dissociated tissue was then vortexed and filtered using a sterile 70 um nylon Falcon™ cell strainer (Corning™). […]
(§2) Compound 4l was evaluated for in vitro growth inhibition against a panel of cancer cell lines, including U373, U251, U87, T98G, human GBM, and A549 NSCLC. […] Compound 4l was also evaluated for in vitro growth inhibition against the apoptosis-sensitive tumor model Hs683 anaplastic oligodendroglioma as a reference.

GBM 090909 cells = experiment: MTT growth inhibition, primary GBM-derived neurosphere culture GBM 090909; format: cell-based; conditions: Homo sapiens, Table 3, 48-96 h treatment, read-out: GI50 in vitro values, glioma GBM 090909
Protocol: as §1, §2

H1993 cells = experiment: Combination treatment with paclitaxel, CellTiter-Glo viability, Bliss Independence; format: cell-based, human; conditions: 96 h, FIG. 2
Protocol: Spirodienone 4l was evaluated against patient-derived NSCLC cell line H1993 and its drug-resistant variant, H2073. The patient-derived NSCLC cell line […] was obtained from a regrown tumor at a primary site after a patient relapsed several months later.
Paclitaxel (Teva™) was dissolved in polyethoxylated castor oil. Compound 4l was dissolved in DMSO. The compound was diluted to different concentrations in medium. Appropriate numbers of cells (4×10^3 cells per well for H1993, 7×10^3 cells per well for H2073) were seeded into 96-well plates. […] After 96 h, viability of cells was assessed using the CellTiter-Glo® Luminescent Cell Viability Assay (Promega™), according to the manufacturer's instructions. Predicted additivity was calculated based on Bliss Independence, as defined by Exy=Ex+Ey−ExEy, where Exy is the additive effect of drugs x and y as predicted by the individual effects Ex and Ey.
FIG. 2 and FIG. 3 illustrate the synergism against H1993 cells.

SMILES | anti-proliferative activity, dose-response (absorbance at 595 nm) (A549 cells; 48 hours, up to 100 μM, FIGS. 4-7) | GI50 (A549 cells; Homo sapiens, Table 5, 48-96 hours of treatment, read-out: GI50, Lung Cancer A549) [µM] | GI50 (GBM 031810 cells) [µM] | GI50 (GBM 090909 cells) [µM] | synergism with paclitaxel in antiproliferative action (H1993 cells)
O=C1C=C[C@]23CC[N@](Cc4c2sc2ccccc42)[C@H]3C1 [Compound 5l] | inhibited proliferation of the cells in a dose-dependent manner | 4 | – | – | –
O=C1C=CC2(C=C1)CCN(C(=O)C(F)(F)F)Cc1c2sc2ccccc12 [Compound 4l] | – | – | 8 | 7 | synergize with paclitaxel
